assay: In vitro binding affinity against sigma receptor by using [3H]-DTG ([3H]-6) as radioligand in guinea pig cerebellum.

First: c1ccc(CCN2CCC3(CCCc4ccccc43)CC2)cc1
Second: c1ccc(CCN2CCC3(CCc4ccccc43)CC2)cc1
The IC50 of the first is 1.8-fold higher: 5 nM for the first, 2.8 nM for the second.

First: COc1ccc(CN2CCC3(CCc4ccccc43)CC2)cc1
Second: COc1ccc(CN2CCC3(CCCc4ccccc43)CC2)cc1
The IC50 of the first is 2.1-fold higher: 3.5 nM for the first, 1.7 nM for the second. The second is the more potent here.

Going from CCCCN1CCC2(CCCCc3ccccc32)CC1 to CCCCN1CCC2(CCc3ccccc32)CC1, the IC50 falls from 4.8 nM to 2 nM (2.4-fold).

Going from Oc1ccc2c(c1)C1(CCC2)CCN(Cc2ccccc2)CC1 to Cc1ccc2c(c1)CCCC21CCN(Cc2ccccc2)CC1, the IC50 falls from 69 nM to 5.5 nM (13-fold).

Compared with c1ccc2c(c1)CCCC21CCN(CC2CCCO2)CC1 (stereo not given), c1ccc2c(c1)CCCC21CCN(CC2CC2)CC1 is 1.8-fold higher in IC50: 5.5 nM for the first, 10 nM for the second. The first is the more potent here.

First: CCCCCCN1CCC2(CCCc3ccccc32)CC1
Second: C=CCCN1CCC2(CCCc3ccccc32)CC1
The IC50 of the first is 2.3-fold lower: 2.9 nM for the first, 6.6 nM for the second. The first is the more potent here.

Cc1ccc(CN2CCC3(CCc4ccccc43)CC2)cc1 and Clc1ccc(CN2CCC3(CCCc4ccccc43)CC2)cc1 are within 1.5-fold of each other in IC50: 5.9 nM for the first, 6.8 nM for the second.

First: c1ccc(CN2CCC3(CCCCc4ccccc43)CC2)cc1
Second: O=[N+]([O-])c1ccc(CN2CCC3(CCCc4ccccc43)CC2)cc1
The IC50 of the first is 2.1-fold lower: 6.8 nM for the first, 14 nM for the second.

Compared with c1coc(CN2CCC3(CCCc4ccccc43)CC2)c1, c1csc(CN2CCC3(CCCc4ccccc43)CC2)c1 is 1.5-fold lower in IC50: 9.5 nM for the first, 6.3 nM for the second. The second is the more potent here.

c1ccc(CN2CCC3(CCc4ccccc43)CC2)nc1 and C=CCN1CCC2(CCCc3ccccc32)CC1 are within 1.5-fold of each other in IC50: 16 nM for the first, 18 nM for the second.

Source: BindingDB's records for doi:10.1021/jm00089a013 (Merck Sharp and Dohme Research Laboratories, 1992)
